Assay results: US20100204203A1, “Chemical Compounds 637: Pyridopyrimidinediones as PDE4 Inhibitors” (priority 2007, published 2010)

biological target: recombinant Human Phosphodiesterase B2 (PDE4B2) (Homo sapiens, UniProt Q07343); experiment: Human Phosphodiesterase B2 Radiometric Assay (yttrium silicate SPA beads, [3H]cyclic AMP); assay type: biochemical; settings: recombinant human PDE4B2, radiometric SPA assay, 8 nM [3H]cyclic AMP; read-out: PDE4B2 pIC50 (converted)
Procedure, shortened: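 Read-out is scintillation proximity: yttrium silicate beads (with 18 mM ZnSO4, added to stop the reaction) bind 5′AMP formed from 8 nM [3H]cAMP over 20 min. Beforehand, compound and 0.1 mg/mL enzyme were preincubated 30 min at 30 °C in pH 7.5 HEPES buffer with MgCl2, EGTA and Brij 35; pIC50 values were curve-fitted.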

recombinant Human Phosphodiesterase B2 (PDE4B2), sequence (Q07343 1-564 isoform Q07343-2): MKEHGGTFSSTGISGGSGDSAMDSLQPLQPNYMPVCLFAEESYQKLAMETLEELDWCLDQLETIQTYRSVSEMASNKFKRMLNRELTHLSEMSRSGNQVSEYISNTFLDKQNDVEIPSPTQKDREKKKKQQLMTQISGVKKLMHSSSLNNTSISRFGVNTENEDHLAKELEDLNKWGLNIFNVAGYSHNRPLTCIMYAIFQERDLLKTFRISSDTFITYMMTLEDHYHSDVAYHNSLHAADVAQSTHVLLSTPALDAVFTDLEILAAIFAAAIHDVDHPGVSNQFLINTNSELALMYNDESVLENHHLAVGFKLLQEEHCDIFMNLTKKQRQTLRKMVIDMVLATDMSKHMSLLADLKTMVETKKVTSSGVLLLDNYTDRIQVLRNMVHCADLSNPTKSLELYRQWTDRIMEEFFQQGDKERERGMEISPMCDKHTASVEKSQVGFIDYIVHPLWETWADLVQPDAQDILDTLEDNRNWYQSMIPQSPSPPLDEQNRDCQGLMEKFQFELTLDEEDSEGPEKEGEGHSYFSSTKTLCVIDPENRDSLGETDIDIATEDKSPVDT

In order of falling IC50:
1. CC(C)N1CCN(Cc2ccc(-c3cccc(-n4c(=O)n([C@H]5CC[C@@H](NCc6cnn(C)c6-c6ccccc6)CC5)c(=O)c5cc(F)cnc54)c3)cc2)CC1 [Example 264, 6-fluoro-1-{4′-[(4-isopropyl-piperazin-1-yl)methyl]biphenyl-3-yl}-3-(cis-4-{[(1-methyl-5-phenyl-1H-pyrazol-4-yl)methyl]amino}cyclohexyl)pyrido[2,3-d] pyrimidine-2,4(1H,3H)-dione]  2.51 nM
2. COc1ccc(CN[C@H]2CC[C@@H](n3c(=O)c4cc(F)cnc4n(-c4cccc(-c5ccc(CN6CCCOCC6)cc5)c4)c3=O)CC2)cc1Cl [Example 258, 3-{cis-4-[(3-Chloro-4-methoxybenzyl)amino]cyclohexyl}-6-fluoro-1-[4′-(1,4-oxazepan-4-ylmethyl)biphenyl-3-yl]pyrido[2,3-d]pyrimidine-2,4(1H,3H)-dione]  2 nM
3. Cn1ncc(CN[C@H]2CC[C@@H](n3c(=O)c4cc(F)cnc4n(-c4cccc(-c5ccc(CN6CCCOCC6)cc5)c4)c3=O)CC2)c1-c1ccccc1 [Example 265, 6-fluoro-3-(cis-4-{[(1-methyl-5-phenyl-1H-pyrazol-4-yl)methyl]amino}cyclohexyl)-1-[4′-(1,4-oxazepan-4-ylmethyl)biphenyl-3-yl]pyrido[2,3-d]pyrimidine-2,4(1H,3H)-dione]  2 nM
4. Cc1c(CN[C@H]2CC[C@@H](n3c(=O)c4cc(F)cnc4n(-c4cccc(-c5ccc(CN6CCN(C(C)C)CC6)cc5)c4)c3=O)CC2)ncn1Cc1ccccc1 [Example 263, 3-(cis-4-{[(1-benzyl-5-methyl-1H-imidazol-4-yl)methyl]amino}cyclohexyl)-6-fluoro-1-{4′-[(4-isopropylpiperazin-1-yl)methyl]biphenyl-3-yl}pyrido[2,3-d] pyrimidine-2,4(1H,3H)-dione]  1.58 nM
5. COc1ccc(O)c(CN[C@H]2CC[C@@H](n3c(=O)c4cc(F)cnc4n(-c4cccc(-c5ccc(CN6CCCOCC6)cc5)c4)c3=O)CC2)c1 [Example 267, 6-fluoro-3-{cis-4-[(2-hydroxy-5-methoxybenzyl)amino]cyclohexyl}-1-[4′-(1,4-oxazepan-4-ylmethyl)biphenyl-3-yl]pyrido[2,3-d] pyrimidine-2,4(1H,3H)-dione]  1.58 nM
6. CC(=O)n1cc(CN[C@H]2CC[C@@H](n3c(=O)c4cc(F)cnc4n(-c4cccc(-c5ccc(CN6CCCOCC6)cc5)c4)c3=O)CC2)c2ccccc21 [Example 266, 3-(cis-4-{[(1-acetyl-1H-indol-3-yl)methyl]amino}cyclohexyl)-6-fluoro-1-[4′-(1,4-oxazepan-4-ylmethyl)biphenyl-3-yl] pyrido[2,3-d]pyrimidine-2,4(1H,3H)-dione]  1 nM
7. COc1ccc(CN[C@H]2CC[C@@H](n3c(=O)c4cc(F)cnc4n(-c4cccc(-c5ccc(CN6CCN(C(C)C)CC6)cc5)c4)c3=O)CC2)cc1OC(C)=O [Example 257, 5-[({cis-4-[6-Fluoro-1-{4′-[(4-isopropylpiperazin-1-yl)methyl]biphenyl-3-yl}-2,4-dioxo-1,4-dihydropyrido[2,3-d]pyrimidin-3(2H)-yl]cyclohexyl}amino)methyl]-2-methoxyphenyl acetate]  0.794 nM
8. CC(C)N1CCN(Cc2ccc(-c3cccc(-n4c(=O)n([C@H]5CC[C@@H](NCc6c(C(F)(F)F)nn(C)c6Cl)CC5)c(=O)c5cc(F)cnc54)c3)cc2)CC1 [Example 262, 3-[cis-4-({[5-chloro-1-methyl-3-(trifluoromethyl)-1H-pyrazol-4-yl]methyl}amino)cyclohexyl]-6-fluoro-1-{4′-[(4-isopropyl-piperazin-1-yl}methyl]biphenyl-3-yl}pyrido[2,3-d]pyrimidine-2,4(1H,3H)-dione]  0.794 nM
9. CN(C)Cc1ccc(-c2cccc(-n3c(=O)n([C@H]4CC[C@@H](NC(=O)c5ccccc5OCCO)CC4)c(=O)c4cc(F)cnc43)c2)cc1 [Example 272, N-{cis-4-[1-{4′-[(Dimethylamino)methyl]biphenyl-3-yl}-6-fluoro-2,4-dioxo-1,4-dihydropyrido[2,3-d]pyrimidin-3(2H)-yl]cyclohexyl}-2-(2-hydroxyethoxy)benzamide]  0.794 nM
10. CC(C)N1CCN(Cc2ccc(-c3cccc(-n4c(=O)n([C@H]5CC[C@@H](NCc6cccc(C#N)c6)CC5)c(=O)c5cc(F)cnc54)c3)cc2)CC1 [Example 259, 3-[({cis-4-[6-fluoro-1-{4′-[(4-isopropylpiperazin-1-yl)methyl]biphenyl-3-yl}-2,4-dioxo-1,4-dihydropyrido[2,3-d]pyrimidin-3(2H)-yl]cyclohexyl}amino)methyl] benzonitrile]  0.631 nM
11. Cc1ccc(CN[C@H]2CC[C@@H](n3c(=O)c4cc(F)cnc4n(-c4cccc(-c5ccc(CN6CCN(C(C)C)CC6)cc5)c4)c3=O)CC2)s1 [Example 261, 6-fluoro-1-{4′-[(4-isopropylpiperazin-1-yl)methyl]biphenyl-3-yl}-3-(cis-4-{[(5-methyl-2-thienyl)methyl]amino}cyclohexyl)pyrido[2,3-d] pyrimidine-2,4(1H,3H)-dione]  0.631 nM
12. COc1ccc(CN[C@H]2CC[C@@H](n3c(=O)c4cc(F)cnc4n(-c4cccc(-c5ccc(CN6CCN(C(C)C)CC6)cc5)c4)c3=O)CC2)cc1Cl [Example 260, 3-{cis-4-[(3-chloro-4-methoxybenzyl)amino]cyclohexyl}-6-fluoro-1-{4′-[(4-isopropyl-piperazin-1-yl)methyl]biphenyl-3-yl}pyrido[2,3-d]pyrimidine-2,4(1H,3H)-dione]  0.501 nM
13. CN1CCN(Cc2ccc(-c3cccc(-n4c(=O)n([C@H]5CC[C@@H](NC(=O)c6cn7cc(F)ccc7n6)CC5)c(=O)c5cc(F)cnc54)c3)cc2)CC1 [Example 269, 6-Fluoro-N-{cis-4-[6-fluoro-1-{4′-[(4-methylpiperazin-1-yl)methyl]biphenyl-3-yl}-2,4-dioxo-1,4-dihydropyrido[2,3-d]pyrimidin-3(2H)-yl]cyclohexyl}imidazo[1,2-a]pyridine-2-carboxamide]  0.02 nM
14. O=C(N[C@H]1CC[C@@H](n2c(=O)c3cc(F)cnc3n(-c3cccc(-c4ccc(CNC5CCNCC5)cc4)c3)c2=O)CC1)c1cn2cc(F)ccc2n1 [Example 268, 6-Fluoro-N-{cis-4-[6-fluoro-2,4-dioxo-1-{4′-[(piperidin-4-ylamino)methyl]biphenyl-3-yl}-1,4-dihydropyrido[2,3-d]pyrimidin-3(2H)-yl]cyclohexyl}imidazo[1,2-a]pyridine-2-carboxamide]  0.0126 nM
15. C[C@@H]1CN(Cc2ccc(-c3cccc(-n4c(=O)n([C@H]5CC[C@@H](NC(=O)c6cn7cc(F)ccc7n6)CC5)c(=O)c5cc(F)cnc54)c3)cc2)C[C@H](C)N1 [Example 270, N-{cis-4-[1-(4′-{[(3R,5S)-3,5-Dimethylpiperazin-1-yl]methyl}biphenyl-3-yl)-6-fluoro-2,4-dioxo-1,4-dihydropyrido[2,3-d]pyrimidin-3(2H)-yl]cyclohexyl}-6-fluoroimidazo[1,2-a]pyridine-2-carboxamide]  0.00631 nM
16. CN(C)Cc1cc(F)ccc1-c1cccc(-n2c(=O)n([C@H]3CC[C@@H](NC(=O)c4cn5cc(F)ccc5n4)CC3)c(=O)c3cc(F)cnc32)c1 [Example 273, N-{cis-4-[1-{2′-[(Dimethylamino)methyl]-4′-fluorobiphenyl-3-yl}-6-fluoro-2,4-dioxo-1,4-dihydropyrido[2,3-d]pyrimidin-3(2H)-yl]cyclohexyl}-6-fluoroimidazo[1,2-a]pyridine-2-carboxamide]  0.00398 nM
